In patent publication US20180186796A1, “COMPOUNDS AND USES THEREOF” (LEAD DISCOVERY SIENA S.R.L., priority 2014, published 2018):
Values after ≈ are worked out from the molar mass of the structure shown. Counter-ions that a name gives are not always drawn. Like-named read-outs stand apart in the source and are kept apart here.

Legend:
[1] = Stability tests in phosphate buffer and methanol; assay type: physicochemical; conditions: 20° C., 48 h incubation
[2] = PAMPA, BBB permeability; conditions: for PAMPA BBB (MR %): Membrane Retention; for Papp at 5 h, 0.5 mM: PAMPA, pH 7.4
[3] = Enzymatic stability in human plasma; assay type: in vitro ADME; conditions: for half-life at 100 μM: human, pooled human plasma diluted with phosphate buffer, pH 7.4
[4] = Water solubility assay; conditions: for solubility at 24 h / solubility thermodynamic at 24 h: water, 20 °C, thermodynamic from solid
[5] = PAMPA, intestinal (GI) permeability; conditions: for PAMPA GI (MR %): Membrane Retention; for Papp at 5 h, 0.5 mM / Papp: PAMPA; for Papp at 5 h, 0.5 mM: pH 7.4; for Papp: Table 6
Description: Donor solution (0.5 mM) was prepared by diluting 1 mM dimethylsulfoxide (DMSO) compound stock solution using phosphate buffer (pH 7.4, 0.025 M). […] Donor solution (150 μL) was added to each well of the filter plate. To each well of the acceptor plate were added 300 μL of solution (50% DMSO in phosphate buffer). All compounds were tested in three different plates on different days. The sandwich was incubated for 5 h at room temperature under gentle shaking. After the incubation time, the plates were separated, and samples were taken from both receiver and donor sides and analyzed using LC with UV detection at 280 nm.
Permeability (Papp) for PAMPA was calculated according to the following equation, obtained from Wohnsland and Faller^27 and Sugano et al.^28 equation with some modification in order to obtain permeability values in cm s^−1,
Drug concentration is estimated by using the peak area integration. Membrane retentions (%) were calculated according to the following equation:
where r is the ratio between drug concentration in the acceptor and equilibrium concentration, D, A, and Eq represented drug concentration in the donor, acceptor and equilibrium solution, respectively.
Donor solution of tested compounds (0.5 mM) was prepared by diluting 1 mM dimethylsulfoxide (DMSO) compound stock solution using phosphate buffer (pH 7.4, 25 mM). […] Donor solution (150 μL) was added to each well of the filter plate. To each well of the acceptor plate were added 300 μL of solution (50% DMSO in phosphate buffer). Compounds was tested in three different plates on different days. The sandwich was incubated for 5 h at room temperature under gentle shaking.
Permeability (Papp) for PAMPA was calculated according to the following equation, obtained from Wohnsland and Faller and Sugano et al.^27, 28.
Drug concentration is estimated by using the peak area integration. Membrane retention (%) was calculated according to the following equation:

[6] = target: T1, Recombinant human Src (Homo sapiens, UniProt P12931); assay: Enzymatic assay on isolated Src; assay type: biochemical
T1 construct: purchased Upstate (Lake Placid, N.Y.)
Excerpt: Recombinant human Src was purchased from Upstate (Lake Placid, N.Y.).

[7] = Microsomal stability assay; conditions: for Metabolic Stab.: percentage of unmodified parent drug, human liver microsomes 60 min; for Metabolic Stab. %: percentage of unmodified drug, Table 8
[8] = target: recombinant Fyn (Homo sapiens, UniProt P06241); assay: Enzymatic assay on isolated Fyn kinase
Description: Kinase assays were performed in presence of 200 μM ATP and 100 μM peptide substrate. All inhibition assays were conducted with 0.01 μg active kinase, 0.33 μmol [^γ32P]ATP, 60 mM HEPES-NaOH pH 7.5, 3 μM Na-orthovanadate, 1.2 mM DTT, 50 μg/ml PEG20.0000, 10 mM magnesium acetate, 0.004% NP40 and 10% DMSO in a final volume of 10 μL. Fyn and inhibitors were preincubated in ice for 5 min; after addition of the substrates the reaction was conducted at 30° C. for 10 min. The reaction was stopped by adding 5 μL of 3% phosphoric acid. Aliquots (10 μL) were then transferred into a P30 Filtermat (PerkinElmer), washed five times with 75 mM phosphoric acid and once with acetone for 5 minute. The filter was dried and transferred to a sealable plastic bag, and scintillation cocktail (4 mL) was added. Spotted reactions were read in a MicroBeta Liquid (Perkinelmer) scintillation counter. The ID50 values were obtained according to the following equation:
Ki values toward recombinant Fyn were calculated using the equation:
according to a competitive mechanism of inhibition toward ATP substrate, where [SATP] is the concentration of ATP. Curve fitting was performed with the program GraphPad Prism version 5.00.

[9] = target: T2, Recombinant human Abl (Homo sapiens, UniProt P00519); assay: Enzymatic assay on isolated Abl; assay type: biochemical; conditions: mean of at least two experiments
T2 construct: purchased Upstate
Description: Recombinant human Abl was purchased from Upstate.
Activity was measured in a filter binding assay using an Abl specific peptide substrate (Abtide, Upstate).

[10] = methanol, read-out: Stability MeOH t1/2
[11] = phosphate buffer, pH 7.4, read-out: Stability PBS pH 7.4 t1/2
[12] = read-out: t1/2 in human plasma (converted)
[13] = mean of at least two experiments, read-out: Enzymatic Data (Ki, μM) c-Src
[14] = 37° C., read-out: Stability Human Plasma t1/2 (converted)

Sequence of recombinant Fyn (P06241 whole entry, looked up): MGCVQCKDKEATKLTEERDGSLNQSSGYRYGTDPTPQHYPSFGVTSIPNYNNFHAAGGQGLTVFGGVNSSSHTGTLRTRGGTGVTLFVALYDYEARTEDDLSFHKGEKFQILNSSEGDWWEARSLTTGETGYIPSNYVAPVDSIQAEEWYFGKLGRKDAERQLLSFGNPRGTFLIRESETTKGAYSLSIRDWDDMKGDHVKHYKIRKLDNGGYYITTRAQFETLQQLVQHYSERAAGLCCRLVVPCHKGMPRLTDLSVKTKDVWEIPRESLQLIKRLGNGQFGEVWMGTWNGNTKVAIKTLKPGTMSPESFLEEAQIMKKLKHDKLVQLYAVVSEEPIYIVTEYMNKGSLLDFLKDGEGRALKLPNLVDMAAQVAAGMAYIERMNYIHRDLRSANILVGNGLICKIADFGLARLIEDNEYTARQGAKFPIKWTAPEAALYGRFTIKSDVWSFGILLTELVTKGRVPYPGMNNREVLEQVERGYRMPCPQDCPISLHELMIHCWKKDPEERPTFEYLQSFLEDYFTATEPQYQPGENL
T1 sequence (P12931 whole entry): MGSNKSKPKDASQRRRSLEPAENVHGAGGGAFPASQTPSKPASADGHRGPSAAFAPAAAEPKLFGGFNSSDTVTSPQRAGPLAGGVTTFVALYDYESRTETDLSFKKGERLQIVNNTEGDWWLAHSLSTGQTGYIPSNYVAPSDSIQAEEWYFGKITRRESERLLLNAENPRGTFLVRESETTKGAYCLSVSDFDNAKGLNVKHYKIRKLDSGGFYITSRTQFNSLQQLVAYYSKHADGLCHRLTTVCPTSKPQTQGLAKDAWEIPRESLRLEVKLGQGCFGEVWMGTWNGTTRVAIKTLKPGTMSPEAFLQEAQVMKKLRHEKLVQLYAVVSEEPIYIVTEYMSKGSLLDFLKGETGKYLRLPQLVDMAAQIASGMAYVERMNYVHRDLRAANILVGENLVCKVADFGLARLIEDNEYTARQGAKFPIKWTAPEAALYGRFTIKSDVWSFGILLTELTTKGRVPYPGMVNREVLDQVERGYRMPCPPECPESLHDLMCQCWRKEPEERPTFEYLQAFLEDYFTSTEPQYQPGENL
T2 sequence (P00519 whole entry): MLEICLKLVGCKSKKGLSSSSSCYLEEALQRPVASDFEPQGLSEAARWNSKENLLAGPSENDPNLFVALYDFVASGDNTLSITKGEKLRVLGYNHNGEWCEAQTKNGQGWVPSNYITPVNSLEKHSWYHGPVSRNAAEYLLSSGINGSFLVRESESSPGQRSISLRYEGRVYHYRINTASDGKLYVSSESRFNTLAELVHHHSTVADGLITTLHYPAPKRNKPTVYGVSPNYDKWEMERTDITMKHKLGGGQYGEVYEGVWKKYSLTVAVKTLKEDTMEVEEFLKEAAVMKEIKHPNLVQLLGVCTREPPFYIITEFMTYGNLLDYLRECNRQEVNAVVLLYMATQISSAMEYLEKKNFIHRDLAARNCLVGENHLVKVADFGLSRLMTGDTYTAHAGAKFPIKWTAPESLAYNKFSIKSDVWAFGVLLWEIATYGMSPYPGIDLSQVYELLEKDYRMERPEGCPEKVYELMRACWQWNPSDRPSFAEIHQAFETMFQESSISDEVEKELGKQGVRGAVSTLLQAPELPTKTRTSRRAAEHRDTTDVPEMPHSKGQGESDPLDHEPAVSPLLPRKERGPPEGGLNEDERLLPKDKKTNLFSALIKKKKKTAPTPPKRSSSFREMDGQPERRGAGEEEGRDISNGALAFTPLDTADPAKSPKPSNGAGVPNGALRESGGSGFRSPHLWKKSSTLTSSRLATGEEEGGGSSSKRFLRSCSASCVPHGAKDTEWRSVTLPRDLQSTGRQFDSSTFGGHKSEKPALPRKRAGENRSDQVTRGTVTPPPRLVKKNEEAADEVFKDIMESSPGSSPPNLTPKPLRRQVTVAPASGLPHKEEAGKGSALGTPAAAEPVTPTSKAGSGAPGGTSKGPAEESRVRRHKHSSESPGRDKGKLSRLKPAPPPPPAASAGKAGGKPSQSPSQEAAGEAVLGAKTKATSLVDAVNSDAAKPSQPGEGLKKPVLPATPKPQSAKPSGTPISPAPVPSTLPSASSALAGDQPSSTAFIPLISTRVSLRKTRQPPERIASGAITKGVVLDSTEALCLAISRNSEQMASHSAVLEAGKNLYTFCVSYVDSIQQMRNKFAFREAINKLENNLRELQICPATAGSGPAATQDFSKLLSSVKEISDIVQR

Structure (SMILES)	half-life at 500 μM [1, 10] [min]	half-life at 500 μM [1, 11] [min]	PAMPA BBB (MR %) [2]	Papp at 5 h, 0.5 mM [2] [×10⁻⁶ cm/s]	solubility at 24 h [4] [µM]	solubility thermodynamic at 24 h [4] [µg/mL]	PAMPA GI (MR %) [5]	Papp at 5 h, 0.5 mM [5] [×10⁻⁶ cm/s]	melting point [°C]	other results
CSc1nc(N(C(=O)OC(C)CN2CCN(C)CC2)c2cccc(Br)c2)c2cnn(CC(C)c3ccccc3)c2n1 (stereo not drawn) [proSi278 (B), 1-(4-Methylpiperazin-1-yl)propan-2-yl (3-bromophenyl)(6-(methylthio)-1-(2-phenylpropyl)-1H-pyrazolo[3,4-d]pyrimidin-4-yl)carbamate]	> 2880	> 2880	(70.6) %	2.39	5.37 (≈ 3.43 µg/mL)	3.4 (≈ 5.32 µM)	(73.3) %	2.15		Stability Human Plasma t1/2 ([3]; 37° C.): 10.40 h; half-life at 100 μM [3, 12]: 624 min
CCSc1nc(Nc2cccc(F)c2)c2cnn(CC(C)c3ccccc3)c2n1 (stereo not drawn)										Ki [6, 13]: 0.79 µM; Metabolic Stab. [7]: 94%; Papp [5]: 1.72 10^−6 cm/sec
ClC(Cn1ncc2c(Nc3ccccc3)nc(SC3CCCC3)nc21)c1ccccc1 (stereo not drawn)										Ki [6, 13]: 0.12 µM; Metabolic Stab. [7]: 94%; Papp [5]: 13 10^−6 cm/sec
CC(=O)c1ccc(-c2nn(CC(C)c3ccccc3)c3ncnc(N)c23)cc1 (stereo not drawn) [Si336, 1-{4-[4-Amino-1-(2-phenylpropyl)-1H-pyrazolo[3,4-d]pyrimidin-3-yl]phenyl}ethanone]									232 to 235	
CC(Cn1nc(-c2ccccc2)c2c(N)ncnc21)c1ccccc1 (stereo not drawn) [Si312, 3-Phenyl-1-(2-phenylpropyl)-1H-pyrazolo[3,4-d]pyrimidin-4-amine]									105 to 109	decreased Fyn activity on substitution of chlorine by methyl in N1 side chain [8]: about 10 fold
CN1CCN(CCOC(=O)N(Cc2ccccc2)c2ncnc3c2cnn3CC(Cl)c2ccccc2)CC1 (stereo not drawn) [proS13, 2-(4-Methylpiperazin-1-yl)ethyl benzyl(1-(2-chloro-2-phenylethyl)-1H-pyrazolo[3,4-d]pyrimidin-4-yl)carbamate]	> 2880	> 2880	(45.6) %	5.01	35.5 (≈ 18.9 µg/mL)	18.8 (≈ 35.2 µM)	(40.1) %	6.7		half-life at 100 μM [3, 14]: > 2880 min; Metabolic Stab. % [7]: 86.4%
CSc1nc(N(C(=O)OCCN2CCN(C)CC2)c2cccc(Cl)c2)c2cnn(CC(Cl)c3ccccc3)c2n1 (stereo not drawn) [proSi83, 2-(4-Methylpiperazin-1-yl)ethyl (1-(2-chloro-2-phenylethyl)-6-(methylthio)-1H-pyrazolo[3,4-d]pyrimidin-4-yl)(3-chlorophenyl)carbamate]	> 2880	> 2880	(47.0) %	4.14	7.08 (≈ 4.25 µg/mL)	4.22 (≈ 7.03 µM)	(44.7) %	4.95		half-life at 100 μM [3, 14]: 197 min
CSc1nc(N(CCc2ccccc2)C(=O)OCCN2CCN(C)CC2)c2cnn(CC(Cl)c3ccccc3)c2n1 (stereo not drawn) [proSi35, 2-(4-methylpiperazin-1-yl)ethyl (1-(2-chloro-2-phenylethyl)-6-(methylthio)-1H-pyrazolo[3,4-d]pyrimidin-4-yl)(phenethyl)carbamate]	> 2880	> 2880	(88.8) %	0.01	182 (≈ 108 µg/mL)	107 (≈ 180 µM)	(86.1) %	0.85		half-life at 100 μM [3, 14]: 2120 min
CN1CCN(CCOC(=O)N(Cc2ccccc2Cl)c2ncnc3c2cnn3CC(Cl)c2ccc(Br)cc2)CC1 (stereo not drawn) [proSi221, 2-(4-Methylpiperazin-1-yl)ethyl (1-(2-(4-bromophenyl)-2-chloroethyl)-1H-pyrazolo[3,4-d]pyrimidin-4-yl)(2-chlorobenzyl)carbamate]	> 2880	> 2880	(79.4) %	1.92	3.09 (≈ 2 µg/mL)	1.95 (≈ 3.01 µM)	(78.1) %	2.38		half-life at 100 μM [3, 14]: > 2880 min
Fc1ccc(CCn2ncc3c(Nc4cccc(Cl)c4)nc(SCCN4CCOCC4)nc32)cc1 [Si327, N-(3-Chlorophenyl)-1-[2-(4-fluorophenyl)ethyl]-6-[(2-morpholin-1-ylethyl)thio]-1H-pyrazolo[3,4-d]pyrimidin-4-amine]									127 to 128	Ki ([6]; read-out: Ki c-Src): ~0.1 µM
CCC(C)Sc1nc(NCc2ccccc2)c2cnn(CC(Cl)c3ccccc3)c2n1 (stereo not drawn) [Si146, N-benzyl-6-(sec-butylthio)-1-(2-chloro-2-phenylethyl)-1H-pyrazolo[3,4-d]pyrimidin-4-amine]									112 to 113	
Clc1cccc(Nc2nc(SC3CCCC3)nc3c2cnn3CC(Cl)c2ccccc2)c1 (stereo not drawn)										Ki [6]: > 100 µM; Ki [8]: > 100000 nM; Ki [9]: > 100 µM
Fc1ccc(CCn2ncc3c(Nc4cccc(Cl)c4)nc(SCCN4CCOCC4)nc32)cc1 [drawing 171]								2.15		Ki [6, 13]: 0.1 µM; Metabolic Stab. [7]: 97%
Nc1ncnc2c1c(-c1ccccc1)nn2CC(Cl)c1ccccc1 (stereo not drawn) (as salt: hydrochloride) [Si244, 1-(2-Chloro-2-phenylethyl)-3-phenyl-1H-pyrazolo[3,4-d]pyrimidin-4-amine hydrochloride]									129 to 132	
CSc1nc(Nc2ccccc2)c2cnn(CCc3ccccc3)c2n1										Ki [6, 13]: 1.46 µM; Metabolic Stab. [7]: 90%; Papp [5]: 7.60 10^−6 cm/sec
Clc1ccccc1CNc1ncnc2c1cnn2CC(Cl)c1ccc(Br)cc1 (stereo not drawn) [Si221]			(7.3) %				(21.0) %			PAMPA BBB ([2]; Blood Brain Barrier PAMPA): 13.23 10^−6 cm · sec^−1; Metabolic Stab. % [7]: 95.2%; H2O Sol. (Log S) ([4]; Table 8): (<−8.60) log mol · L^−1; H2O Sol. ([4]; Table 8, 20° C., 24 h): <0.01 µg/mL; PAMPA GI ([5]; Gastrointestinal PAMPA, Table 8): 8.78 10^−6 cm · sec^−1
CSc1nc(N(C(=O)OCCN2CCN(C)CC2)c2cccc(Cl)c2)c2cnn(CCc3ccccc3)c2n1 [proSi214, 2-(4-Methylpiperazin-1-yl)ethyl (3-chlorophenyl)(6-(methylthio)-1-phenethyl-1H-pyrazolo[3,4-d]pyrimidin-4-yl)carbamate]	> 2880	> 2880	(49.7) %	4.3	11.2 (≈ 6.35 µg/mL)	6.32 (≈ 11.2 µM)	(63.1) %	4.69		half-life at 100 μM [3, 14]: 220 min
CCC(CN1CCN(C)CC1)OC(=O)N(c1cccc(Br)c1)c1nc(SC)nc2c1cnn2CC(C)c1ccccc1 (stereo not drawn) [proSi278 (C), 1-(4-Methylpiperazin-1-yl)butan-2-yl (3-bromophenyl)(6-(methylthio)-1-(2-phenylpropyl)-1H-pyrazolo[3,4-d]pyrimidin-4-yl)carbamate]	> 2880	> 2880	(91.4) %	0.93	3.02 (≈ 1.97 µg/mL)	1.96 (≈ 3 µM)	(88.1) %	1.45		Stability Human Plasma t1/2 ([3]; 37° C.): 11.31 h; half-life at 100 μM [3, 12]: 679 min
Cc1ccc(-c2nn(CC(C)c3ccccc3)c3ncnc(N)c23)cc1 (stereo not drawn) [Si338, 3-(4-Methylphenyl)-1-(2-phenylpropyl)-1H-pyrazolo[3,4-d]pyrimidin-4-amine]									152 to 155	decreased Fyn activity on substitution of chlorine by methyl in N1 side chain ([8]; Si312 vs Si244, Si337 vs Si308, Si338 vs Si309): about 10 fold; Ki ([8]; read-out: Ki Fyn): 995 nM
CCC(C)Sc1nc(NCCc2ccccc2)c2cnn(CC(Cl)c3ccccc3)c2n1 (stereo not drawn) [Si147, 6-(Sec-butylthio)-1-(2-chloro-2-phenylethyl)-N-(2-phenylethyl)-1H-pyrazolo[3,4-d]pyrimidin-4-amine]									97 to 98	
